Publication PMC10482691, “LTP induction by structural rather than enzymatic functions of CaMKII” (Nature, 2023)
Several values for one entry are separate records, joined by “and”; a condition that tells them apart may be missing. Equal entries are not always repeated.

How the values were obtained:
[1] = target: Pim-1(h) (Homo sapiens, UniProt P11309); assay: Kinase selectivity panel (residual activity at 1 μM); type: biochemical; conditions: inhibitor at 1 μM; read-out: residual kinase activity in % of maximal activity
[2] = target: Ret(h) (Homo sapiens, UniProt P07949); assay: as above; type: biochemical; conditions: inhibitor at 1 μM; read-out: residual kinase activity in % of maximal activity
[3] = target: purified CaMKIIα (Rattus norvegicus, UniProt P11275); assay: In vitro kinase reaction: CaMKIIα autophosphorylation of T286; type: biochemical; conditions: 30 °C, 1 mM ATP, Ki from IC50 with Km ATP 33.3 μM, read-out: apparent inhibitor constant (Ki), pT286
Method: Data are presented as mean values ± s.e.m. a, Schematic of the AS283 inhibitor mechanism of action: ATP-competitive inhibition blocks enzymatic activity while mimicking the nucleotide binding requirement to allow interaction with GluN2B. b, Representative immunoblot and quantification of in vitro kinase reactions at 30 °C in 1 mM ATP measuring purified CaMKIIα phosphorylation of GST–GluA1 S831 with varying concentrations of AS283 (0.41–10 μM; n = 4 independent concentration curves). For a negative control (Neg.), ATP was omitted. […] ADP:AS283 P = 0.0697; ADP:tatCN21 P < 0.0001. ***P < 0.001. d, Confocal microscopy images of HEK293 cells co-expressing GFP–CaMKII and mCherry-2BC. […] CaMKII synaptic enrichment was measured before and after cLTP (n = 14,9 cells; RM two-way ANOVA with Šídák’s multiple comparisons test). […]
CaMKII-mediated phosphorylation of GluA1 S831 or GluN2B S1303 was measured by in vitro kinase reaction with a purified GST–GluA1 C-terminal tail or GST-GluN2B C-terminal tail. […] GST, phospho-S831, CaMKII, phospho-T286 or phospho-S1303 were detected in the samples by immunoblot analysis.
The inhibition constant Ki was calculated using the Cheng–Prusoff equation for competitive inhibition: Ki = IC50/(1 + [ATP]/Km).

[4] = target: T1, CaMKII-F89G binding to GST-GluN2B-c (Homo sapiens, UniProt Q9UQM7, F89G); assay: CaMKII-F89G binding to immobilized GST-GluN2B-c in vitro
T1 construct: made in house; host or cells: HEK293 overexpression (CaMKII mutant); BL21 bacteria (CaM, GST-GluN2Bc)
Method: CaMKII–GluN2B binding assays were done as described[9],[13],[25]. Briefly, GST–GluN2B-c tail (GST–2BC) was immobilized on anti-GST antibody-coated microtiter plates (Thermo Scientific), blocked for 30 min with 5% BSA and then overlaid with […] CaMKII (subunit concentration) in PIPES-buffered saline (pH 7.2) containing 2 mM Ca^2+, 1 μM CaM, 1 mM Mg^2+, 0.1% BSA and 0.1% Tween-20 for 20 min at room temperature. The addition of 1 mM ADP, 1 mM ATP, 10 μM AS283 (or AS105) or 10 μM NM-PP1 was added accordingly (Figs. 1–6). After extensive washes in buffer containing 1 mM EGTA, GST–2BC and bound CaMKII were eluted for 10 min in SDS loading buffer at 95 °C. Bound CaMKII was measured via immunoblot.
Extended Data Fig. 4 CaMKII WT and K42M are unaffected by NM-PP1 in HEK cells. Data are presented as mean values +/− SEM. a, Representative immunoblot and quantification of in vitro kinase reactions at 30 °C in 1 mM ATP measuring CaMKIIα WT and F89G phosphorylation of T286 (n = 4 independent samples, **p < 0.01, ***p < 0.001; two-way ANOVA with Šídák’s multiple comparisons test). WT) –:ATP p = 0.0012; –:ATP+NM-PP1 p = 0.0002; ATP:ATP+NM-PP1 p = 0.7989. […] Scale bar indicates 10 μm. n = 22, 17 cells; see Fig. 4c for quantification. c, Binding of CaMKII-F89G to immobilized GST-GluN2B-c was induced by Ca^2+/CaM in the presence of either 1 mM ADP or 10 μM NM-PP1. […]

T1 sequence (Q9UQM7 whole entry F89G): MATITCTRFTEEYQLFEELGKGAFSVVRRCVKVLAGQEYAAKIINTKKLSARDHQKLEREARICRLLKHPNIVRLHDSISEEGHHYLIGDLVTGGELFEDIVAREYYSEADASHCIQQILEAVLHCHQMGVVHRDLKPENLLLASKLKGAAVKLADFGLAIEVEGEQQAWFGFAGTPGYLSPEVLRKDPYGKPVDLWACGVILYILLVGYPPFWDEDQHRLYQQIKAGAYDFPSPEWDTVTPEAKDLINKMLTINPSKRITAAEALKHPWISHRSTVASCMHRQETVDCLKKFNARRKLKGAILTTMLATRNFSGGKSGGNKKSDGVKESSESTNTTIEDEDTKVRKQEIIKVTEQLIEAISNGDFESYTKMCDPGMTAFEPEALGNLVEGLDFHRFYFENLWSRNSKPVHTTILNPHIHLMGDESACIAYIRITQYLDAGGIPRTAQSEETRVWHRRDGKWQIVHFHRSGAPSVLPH
T1 sequence (Q13224 836-1484, further chain): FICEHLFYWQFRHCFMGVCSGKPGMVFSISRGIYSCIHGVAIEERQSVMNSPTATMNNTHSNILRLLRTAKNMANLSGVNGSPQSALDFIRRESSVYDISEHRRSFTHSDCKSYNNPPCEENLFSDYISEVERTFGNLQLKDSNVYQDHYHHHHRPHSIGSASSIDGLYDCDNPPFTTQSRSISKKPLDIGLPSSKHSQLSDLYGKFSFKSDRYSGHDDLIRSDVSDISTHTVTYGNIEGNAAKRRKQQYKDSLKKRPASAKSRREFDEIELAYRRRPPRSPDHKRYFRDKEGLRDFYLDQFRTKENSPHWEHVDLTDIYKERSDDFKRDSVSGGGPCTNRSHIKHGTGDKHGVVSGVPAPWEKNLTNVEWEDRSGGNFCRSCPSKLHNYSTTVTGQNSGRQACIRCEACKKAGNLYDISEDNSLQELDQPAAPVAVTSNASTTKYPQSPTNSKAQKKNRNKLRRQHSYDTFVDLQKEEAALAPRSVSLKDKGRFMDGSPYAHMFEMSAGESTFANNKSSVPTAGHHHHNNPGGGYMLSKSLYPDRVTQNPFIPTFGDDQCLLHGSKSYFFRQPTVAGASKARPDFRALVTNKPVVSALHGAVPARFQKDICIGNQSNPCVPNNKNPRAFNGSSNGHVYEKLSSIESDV
Sequence of Pim-1(h) (P11309 whole entry): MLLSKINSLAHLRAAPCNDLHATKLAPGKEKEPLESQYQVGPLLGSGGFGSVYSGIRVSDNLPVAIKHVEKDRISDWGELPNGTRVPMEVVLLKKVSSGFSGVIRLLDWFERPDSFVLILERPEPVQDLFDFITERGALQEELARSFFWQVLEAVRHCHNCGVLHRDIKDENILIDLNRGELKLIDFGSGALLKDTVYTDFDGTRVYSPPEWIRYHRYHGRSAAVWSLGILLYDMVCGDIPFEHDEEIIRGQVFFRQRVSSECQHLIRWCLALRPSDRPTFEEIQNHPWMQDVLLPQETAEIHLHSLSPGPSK
Sequence of Ret(h) (P07949 29-1114): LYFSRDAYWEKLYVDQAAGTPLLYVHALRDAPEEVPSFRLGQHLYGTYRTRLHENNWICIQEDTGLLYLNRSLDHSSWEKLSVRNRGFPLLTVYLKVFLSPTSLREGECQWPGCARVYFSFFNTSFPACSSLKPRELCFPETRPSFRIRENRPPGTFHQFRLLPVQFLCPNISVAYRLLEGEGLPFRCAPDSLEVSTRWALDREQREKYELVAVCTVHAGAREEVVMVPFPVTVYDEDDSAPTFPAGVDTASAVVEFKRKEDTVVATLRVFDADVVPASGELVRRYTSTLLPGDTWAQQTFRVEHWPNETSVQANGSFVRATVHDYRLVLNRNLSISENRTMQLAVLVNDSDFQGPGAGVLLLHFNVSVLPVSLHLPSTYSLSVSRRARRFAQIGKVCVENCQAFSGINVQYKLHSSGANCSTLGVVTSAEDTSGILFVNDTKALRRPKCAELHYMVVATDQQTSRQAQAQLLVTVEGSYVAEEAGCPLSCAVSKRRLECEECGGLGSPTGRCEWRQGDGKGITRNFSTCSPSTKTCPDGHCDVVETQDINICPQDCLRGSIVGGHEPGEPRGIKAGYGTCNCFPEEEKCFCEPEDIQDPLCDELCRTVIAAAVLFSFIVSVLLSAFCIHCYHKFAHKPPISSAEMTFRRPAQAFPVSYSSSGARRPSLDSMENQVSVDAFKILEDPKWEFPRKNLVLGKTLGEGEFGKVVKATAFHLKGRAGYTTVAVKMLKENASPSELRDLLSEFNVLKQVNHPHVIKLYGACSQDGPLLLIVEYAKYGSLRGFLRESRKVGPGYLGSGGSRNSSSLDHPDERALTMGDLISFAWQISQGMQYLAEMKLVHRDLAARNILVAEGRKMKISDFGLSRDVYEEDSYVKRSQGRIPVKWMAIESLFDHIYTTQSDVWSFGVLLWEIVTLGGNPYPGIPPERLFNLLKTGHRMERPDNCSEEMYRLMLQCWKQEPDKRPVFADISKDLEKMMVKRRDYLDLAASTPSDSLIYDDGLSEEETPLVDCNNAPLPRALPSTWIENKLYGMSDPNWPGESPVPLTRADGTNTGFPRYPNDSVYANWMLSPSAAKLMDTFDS

For `NCCNc1cccc(-c2ccnc3[nH]c4ccccc4c23)c1` [AS283], the remaining activity at 1 µM [1] was 50%, the remaining activity at 1 µM [2] was 44% and the Ki [3] was 71 nM.
With `CC(C)(C)n1nc(Cc2cccc3ccccc23)c2c(N)ncnc21` [NM-PP1] the “bound CaMKII-F89G (immunoblot, relative)” value ([4]; Ca2+/CaM, 10 μM NM-PP1) was 3.501 and 3.151 and 3.552 and 3.537 and the “effect on binding of CaMKII F89G to GluN2B in vitro” value ([4]; NM-PP1) was “enabled binding”.
